According to US7388070B1, “Structure-based approach to design of inhibitors of protein-processivity factor interactions” (priority 1999, dated 2008):

Legend:
[1] = CD spectroscopy, helicity from ellipticity at 222 nm; format: physicochemical; details: calculated from ellipticity values at 222 nm from CD measurements
Method: CD spectroscopy was performed in order to determine if the peptides with the least inhibitory activity were altered structurally. […] Therefore, the lack of inhibitory activity of these two mutants may be at least in part due to alterations in structure.
Lyophilized peptides were resuspended in 10 mM KF and adjusted to pH 8 with KOH. Spectra were recorded at the indicated peptide concentrations with an Aviv 62DS SpectroPolarimeter at 0° C. in a 0.1 cm pathlength cuvette. Wavelength scans were recorded at 1 nm intervals with a 5 second averaging time, and 5 to 10 scans were averaged. Peptide concentrations were determined by quantitative amino acid analysis. Unfolding curves were obtained by monitoring mean residue ellipticity at 222 nm as a function of the concentration of guanidine-HCl and temperature.

[2] = target: T1, HSV Pol and UL42 (Human herpesvirus 1, UniProt P10226); assay: Inhibition of UL42-mediated long-chain DNA synthesis (polymerase assay, poly(dA)/oligo(dT) primer/template); format: biochemical
T1 construct: made in house; host or cells: insect cells infected with recombinant baculoviruses
Excerpt: To perform structure-activity studies, “alanine scan” mutants of peptide E, in which each non-alanine residue was individually converted to an alanine, were synthesized and tested for their ability to inhibit long-chain DNA synthesis by Pol and UTL42. A poly(dA)/oligo(dT15) template/primer was employed. On this primer/template, Pol alone adds only one or two bases, but when UL42 is present, longer DNA products are formed. DNA products greater than 18 bases were quantified at varying peptide concentrations and expressed as a percentage of products formed by Pol/UL42 in the presence of vehicle control.
Reaction mixtures contained 50 mM Tris-Cl (pH 7.6), 100 mM (NH4)2SO4, 3 mM MgCl2, 0.1 mM EDTA, 1 mM dithiothreitol, 0.1 μg BSA, 4% glycerol, 0.25 μg of poly(dA)-oligo(dT) primer/template, […] [^32P]-TTP (5 Ci/mMol), 100 fmol of HSV Pol, 200 fmol of UL42 and varying concentrations of peptide inhibitors in a final volume of 25 μL. Reactions were carried out at 37° C. for 5 to 10 minutes. Reactions were stopped by placing them on ice and adding 5 μL of alkaline loading buffer (2 mM EDTA, 50 mM NaOH, 2.5% glycerol, 0.025% bromcresol green) and were then loaded onto a 4% alkaline agarose gel. Gels were dried overnight and used to expose film and phosphoresence screens. Because Pol alone added only 1-2 nucleotides to the 15 base primer, newly synthesized DNA larger than 18 bases was defined as long-chain and quantified using a Molecular Dynamics Phosphorimager.

T1 sequence (P10226 whole entry): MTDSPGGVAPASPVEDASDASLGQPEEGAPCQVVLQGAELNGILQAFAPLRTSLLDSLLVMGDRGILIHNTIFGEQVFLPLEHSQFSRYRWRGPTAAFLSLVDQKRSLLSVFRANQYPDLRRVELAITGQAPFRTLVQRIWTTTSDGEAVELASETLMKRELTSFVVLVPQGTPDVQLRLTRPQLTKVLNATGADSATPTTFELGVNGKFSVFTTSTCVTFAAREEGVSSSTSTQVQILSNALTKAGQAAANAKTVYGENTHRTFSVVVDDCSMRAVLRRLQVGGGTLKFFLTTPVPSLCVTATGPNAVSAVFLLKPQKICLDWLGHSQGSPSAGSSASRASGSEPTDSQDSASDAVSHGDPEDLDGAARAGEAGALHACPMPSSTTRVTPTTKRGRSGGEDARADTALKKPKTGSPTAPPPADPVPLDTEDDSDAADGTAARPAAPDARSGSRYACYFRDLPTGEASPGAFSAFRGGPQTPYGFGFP

Compound | % Helicity [1] | IC50 [2]
CSCC[C@H](NC(=O)[C@H](CCCNC(=N)N)NC(=O)[C@H](CCCNC(=N)N)NC(=O)[C@@H](NC(=O)[C@H](CCC(=O)O)NC(=O)[C@H](CCC(=O)O)NC(=O)[C@H](C)NC(=O)[C@@H](NC(=O)[C@H](C)NC(=O)CNC(=O)[C@H](C)NC(=O)CNC(=O)[C@@H](NC(=O)[C@H](C)NC(=O)CNC(=O)[C@H](Cc1ccccc1)NC(=O)CNC(=O)[C@H](C)NC(=O)[C@H](C)NC(=O)[C@H](CCCNC(=N)N)NC(=O)[C@H](CC(C)C)NC(=O)[C@H](CCCNC(=N)N)NC(=O)[C@H](C)NC(=O)[C@H](C)NC(=O)[C@@H](NC(=O)[C@H](CC(=O)O)NC(=O)[C@H](CC(=O)O)NC(C)=O)C(C)C)C(C)C)[C@@H](C)O)[C@@H](C)O)C(=O)N[C@@H](CC(C)C)C(=O)N[C@@H](Cc1c[nH]cn1)C(=O)N[C@@H](CCCNC(=N)N)C(=O)N[C@@H](C)C(=O)N[C@@H](Cc1ccccc1)C(=O)N[C@@H](CC(=O)O)C(=O)N[C@H](C(=O)N[C@@H](CC(C)C)C(=O)N[C@@H](C)C(=O)O)[C@@H](C)O [Peptide A] | 20% | –
CSCC[C@H](NC(=O)[C@H](CCCNC(=N)N)NC(=O)[C@H](CCCNC(=N)N)NC(=O)[C@@H](NC(=O)[C@H](CCC(=O)O)NC(=O)[C@H](C)NC(=O)[C@H](C)NC(=O)[C@@H](NC(=O)[C@H](C)N)[C@@H](C)O)[C@@H](C)O)C(=O)N[C@@H](CC(C)C)C(=O)N[C@@H](Cc1c[nH]cn1)C(=O)N[C@@H](CCCNC(=N)N)C(=O)N[C@@H](C)C(=O)N[C@@H](Cc1ccccc1)C(=O)N[C@@H](CC(=O)O)C(=O)N[C@H](C(=O)N[C@@H](CC(C)C)C(=O)N[C@@H](C)C(=O)O)[C@@H](C)O [Peptide E22A] | – | > 100 µM
CSCC[C@H](NC(=O)[C@H](CCCNC(=N)N)NC(=O)[C@H](CCCNC(=N)N)NC(=O)[C@@H](NC(=O)[C@H](CCC(=O)O)NC(=O)[C@H](CCC(=O)O)NC(=O)[C@H](C)NC(=O)[C@@H](NC(=O)[C@H](C)NC(C)=O)[C@@H](C)O)[C@@H](C)O)C(=O)N[C@@H](CC(C)C)C(=O)N[C@@H](Cc1c[nH]cn1)C(=O)N[C@@H](CCCNC(=N)N)C(=O)N[C@@H](C)C(=O)N[C@@H](C)C(=O)N[C@@H](CC(=O)O)C(=O)N[C@H](C(=O)N[C@@H](CC(C)C)C(=O)N[C@@H](C)C(N)=O)[C@@H](C)O [Peptide F32A] | 28% | > 100 µM
CSCC[C@H](NC(=O)[C@H](CCCNC(=N)N)NC(=O)[C@H](CCCNC(=N)N)NC(=O)[C@@H](NC(=O)[C@H](CCC(=O)O)NC(=O)[C@H](CCC(=O)O)NC(=O)[C@H](C)NC(=O)[C@H](C)NC(=O)[C@H](C)NC(C)=O)[C@@H](C)O)C(=O)N[C@@H](CC(C)C)C(=O)N[C@@H](Cc1c[nH]cn1)C(=O)N[C@@H](CCCNC(=N)N)C(=O)N[C@@H](C)C(=O)N[C@@H](Cc1ccccc1)C(=O)N[C@@H](CC(=O)O)C(=O)N[C@H](C(=O)N[C@@H](CC(C)C)C(=O)N[C@@H](C)C(N)=O)[C@@H](C)O [Peptide T20A] | 16% | > 100 µM
Ac-ATAEETRRALHRAFDTLA-NH2 (N-terminus and C-terminus assumed) [Peptide M27A] | – | > 100 µM
Ac-ATAEETRRMLARAFDTLA-NH2 (N-terminus and C-terminus assumed) [Peptide H29A] | 25% | > 100 µM
Ac-ATAEETRRMLHAAFDTLA-NH2 (N-terminus and C-terminus assumed) [Peptide R30A] | 26% | > 100 µM
